Entries after “also recorded” stand apart in the source; their conditions may differ. Read-outs that look alike come from different tables or passages of the source.
Experiments:
human ABCB4 [1] = molecular target: T1, human ABCB4 (Homo sapiens, UniProt P21439); assay: Inhibition of ABCB4-mediated digoxin transport, bidirectional assay in Abcb1KO-MDCKII-ABCB4 cells; format: cell-based
T1 construct: expressed in transfected cells; host or cells: Abcb1KO-MDCKII (canine kidney, Abcb1 knockout), lentiviral transduction, single clone

[2] = ref FDA Liver Toxicity Knowledge Base (LTKB); cited from earlier work
ABCB4 [3] = conditions: read-out: In Vitro Literature Data (IC50), cited from earlier work
ABCB1 = ABCB1 (Homo sapiens, UniProt P08183); conditions: Y/N; cited from earlier work
human ABCB4 [4] = molecular target: T1, human ABCB4; assay: Bidirectional transport (efflux ratio) in Abcb1KO-MDCKII-ABCB4 cells, substrate test; format: in vitro ADME; conditions: for ABCB4 substrate status, in words: bidirectional transport, ER cut-off 2
canine Abcb1 [5] = molecular target: T2, canine Abcb1 (Canis lupus familiaris, UniProt C0KKU9); assay: in vitro; conditions: dog, MDCK, pH 7.4
ABCB4 [6] = conditions: cited from earlier work; for IC50: read-out: In Vitro Literature Data (IC50)
ABCB4 [7] = conditions: cited from earlier work; for In Vitro Literature Data, inhibitor (IC50 value was not determined): digoxin transport in ABCB4-transfected LLC-PK1 cells
canine Abcb1 [8] = molecular target: T2, canine Abcb1; design: To confirm the impact of endogenous canine Abcb1 on the efflux ratio (ER); host or cells: MDCKII parental (wildtype) cells; method as in PMID 31266750; conditions: previous study; cited from earlier work
[9] = digoxin 1 µM probe, ABCB4 cell monolayers, samples at 3 h, read-out: IC50 (µM), Based on Digoxin ER
[10] = primary hepatocyte assay, labeled PC

T1 sequence (P21439 1-1279 isoform P21439-2): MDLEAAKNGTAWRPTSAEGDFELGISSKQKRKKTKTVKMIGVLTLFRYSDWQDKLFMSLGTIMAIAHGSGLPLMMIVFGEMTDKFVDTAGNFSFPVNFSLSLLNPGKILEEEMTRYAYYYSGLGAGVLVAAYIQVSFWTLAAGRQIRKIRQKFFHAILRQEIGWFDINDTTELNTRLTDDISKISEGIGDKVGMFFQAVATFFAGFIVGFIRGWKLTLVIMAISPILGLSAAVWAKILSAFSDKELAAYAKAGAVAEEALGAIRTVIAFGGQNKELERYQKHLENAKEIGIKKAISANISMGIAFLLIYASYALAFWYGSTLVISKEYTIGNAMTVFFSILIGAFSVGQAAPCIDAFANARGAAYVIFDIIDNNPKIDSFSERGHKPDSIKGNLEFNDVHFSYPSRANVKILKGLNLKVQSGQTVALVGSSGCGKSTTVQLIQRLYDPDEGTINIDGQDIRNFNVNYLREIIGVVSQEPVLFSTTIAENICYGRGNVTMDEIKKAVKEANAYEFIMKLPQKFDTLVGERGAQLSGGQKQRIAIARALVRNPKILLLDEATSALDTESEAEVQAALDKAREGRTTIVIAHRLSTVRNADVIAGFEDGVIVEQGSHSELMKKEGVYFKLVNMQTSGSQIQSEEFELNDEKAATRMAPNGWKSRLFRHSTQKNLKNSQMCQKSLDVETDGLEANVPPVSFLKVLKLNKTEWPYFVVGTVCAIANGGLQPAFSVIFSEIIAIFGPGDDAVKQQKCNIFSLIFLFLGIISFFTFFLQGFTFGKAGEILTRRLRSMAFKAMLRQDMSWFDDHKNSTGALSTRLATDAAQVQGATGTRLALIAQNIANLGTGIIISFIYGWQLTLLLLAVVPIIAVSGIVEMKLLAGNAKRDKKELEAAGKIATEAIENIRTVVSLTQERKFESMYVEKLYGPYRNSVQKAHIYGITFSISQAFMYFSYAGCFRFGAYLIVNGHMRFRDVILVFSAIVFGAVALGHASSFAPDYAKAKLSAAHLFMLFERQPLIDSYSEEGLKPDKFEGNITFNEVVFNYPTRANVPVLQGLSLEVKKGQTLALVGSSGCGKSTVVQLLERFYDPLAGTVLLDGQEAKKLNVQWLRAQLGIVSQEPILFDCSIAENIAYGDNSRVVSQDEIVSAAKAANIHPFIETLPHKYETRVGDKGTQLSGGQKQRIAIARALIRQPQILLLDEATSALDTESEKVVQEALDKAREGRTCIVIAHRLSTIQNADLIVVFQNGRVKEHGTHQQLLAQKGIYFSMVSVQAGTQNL
T2 sequence (C0KKU9 1-1281): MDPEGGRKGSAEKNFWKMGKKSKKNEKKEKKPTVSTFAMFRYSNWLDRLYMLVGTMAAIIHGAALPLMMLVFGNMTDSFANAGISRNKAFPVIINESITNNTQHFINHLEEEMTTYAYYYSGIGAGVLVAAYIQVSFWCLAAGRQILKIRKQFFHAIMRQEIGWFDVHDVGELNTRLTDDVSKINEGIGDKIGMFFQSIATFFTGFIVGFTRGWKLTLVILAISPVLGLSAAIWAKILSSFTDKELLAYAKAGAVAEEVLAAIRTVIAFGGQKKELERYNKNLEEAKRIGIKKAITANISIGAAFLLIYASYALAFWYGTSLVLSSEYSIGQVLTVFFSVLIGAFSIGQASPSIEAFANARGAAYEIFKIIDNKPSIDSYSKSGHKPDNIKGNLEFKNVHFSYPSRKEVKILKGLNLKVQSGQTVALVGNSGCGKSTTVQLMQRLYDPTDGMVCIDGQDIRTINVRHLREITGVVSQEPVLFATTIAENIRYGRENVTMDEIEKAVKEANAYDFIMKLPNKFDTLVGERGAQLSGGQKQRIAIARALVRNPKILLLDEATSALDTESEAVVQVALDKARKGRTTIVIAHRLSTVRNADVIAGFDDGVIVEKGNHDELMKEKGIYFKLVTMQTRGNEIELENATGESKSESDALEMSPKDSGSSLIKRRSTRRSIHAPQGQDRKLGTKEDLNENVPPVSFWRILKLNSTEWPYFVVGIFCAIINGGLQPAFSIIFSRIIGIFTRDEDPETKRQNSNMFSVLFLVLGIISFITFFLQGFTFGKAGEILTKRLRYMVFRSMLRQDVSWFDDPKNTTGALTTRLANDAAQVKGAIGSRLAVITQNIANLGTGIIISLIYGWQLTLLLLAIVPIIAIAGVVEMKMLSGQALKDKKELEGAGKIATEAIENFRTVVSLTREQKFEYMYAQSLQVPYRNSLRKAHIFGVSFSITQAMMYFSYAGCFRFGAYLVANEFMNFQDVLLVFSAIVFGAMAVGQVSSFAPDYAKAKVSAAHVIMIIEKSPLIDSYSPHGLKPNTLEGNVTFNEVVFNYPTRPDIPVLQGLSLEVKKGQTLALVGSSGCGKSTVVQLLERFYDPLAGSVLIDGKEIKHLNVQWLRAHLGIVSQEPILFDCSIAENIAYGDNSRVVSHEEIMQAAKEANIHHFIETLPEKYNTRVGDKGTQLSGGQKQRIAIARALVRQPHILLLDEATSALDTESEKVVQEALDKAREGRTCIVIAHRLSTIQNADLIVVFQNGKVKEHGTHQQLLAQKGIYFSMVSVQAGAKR
ABCB1, sequence (P08183 whole entry): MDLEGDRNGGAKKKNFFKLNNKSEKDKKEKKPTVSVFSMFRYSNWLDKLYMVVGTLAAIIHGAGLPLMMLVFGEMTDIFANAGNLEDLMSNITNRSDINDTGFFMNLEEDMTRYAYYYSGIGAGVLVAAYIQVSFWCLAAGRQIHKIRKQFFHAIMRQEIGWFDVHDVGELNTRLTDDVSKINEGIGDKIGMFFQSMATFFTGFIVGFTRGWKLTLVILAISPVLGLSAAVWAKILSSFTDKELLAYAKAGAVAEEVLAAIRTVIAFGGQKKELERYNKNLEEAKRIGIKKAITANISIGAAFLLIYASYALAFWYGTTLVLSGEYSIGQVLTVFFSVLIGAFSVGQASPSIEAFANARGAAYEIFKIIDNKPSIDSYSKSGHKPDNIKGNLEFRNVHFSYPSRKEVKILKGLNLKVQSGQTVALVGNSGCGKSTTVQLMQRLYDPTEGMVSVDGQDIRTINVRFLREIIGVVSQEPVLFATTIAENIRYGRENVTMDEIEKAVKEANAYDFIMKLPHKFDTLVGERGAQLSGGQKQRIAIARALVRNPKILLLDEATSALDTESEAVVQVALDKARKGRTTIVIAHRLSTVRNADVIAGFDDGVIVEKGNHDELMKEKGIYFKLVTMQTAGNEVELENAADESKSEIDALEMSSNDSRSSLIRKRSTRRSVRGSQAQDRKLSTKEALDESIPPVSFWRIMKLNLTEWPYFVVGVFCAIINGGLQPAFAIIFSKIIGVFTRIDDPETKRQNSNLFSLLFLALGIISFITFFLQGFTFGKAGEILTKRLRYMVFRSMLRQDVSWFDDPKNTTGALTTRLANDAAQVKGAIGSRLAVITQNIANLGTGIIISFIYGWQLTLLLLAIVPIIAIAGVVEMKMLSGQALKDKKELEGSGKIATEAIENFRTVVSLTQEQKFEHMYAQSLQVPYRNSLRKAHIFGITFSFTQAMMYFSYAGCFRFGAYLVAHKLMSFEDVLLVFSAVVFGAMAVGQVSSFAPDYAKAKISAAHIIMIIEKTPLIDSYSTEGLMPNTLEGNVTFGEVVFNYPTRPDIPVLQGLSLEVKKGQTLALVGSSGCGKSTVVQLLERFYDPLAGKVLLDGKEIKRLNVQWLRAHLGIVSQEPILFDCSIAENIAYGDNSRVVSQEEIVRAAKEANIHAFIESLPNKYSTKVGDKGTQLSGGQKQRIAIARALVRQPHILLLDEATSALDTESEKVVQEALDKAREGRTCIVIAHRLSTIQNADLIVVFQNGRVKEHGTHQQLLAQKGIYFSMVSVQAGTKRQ

| Effect on ABCB4-mediated digoxin transport, in words (human ABCB4 [1]; digoxin 1 µM probe) | IC50 (human ABCB4 [1]; [9]) | Molecule | DILI Concern [2] | also measured |
| --- | --- | --- | --- | --- |
| no effect | > 100 µM | CC(=O)Oc1ccccc1C(=O)O [acetylsalicylic acid] | No DILI concern | IC50 (ABCB4 [3]; human primary hepatocyte assay): > 300 µM |
| – | > 10 µM | CCCCc1oc2ccccc2c1C(=O)c1cc(I)c(OCCN(CC)CC)c(I)c1 [amiodarone] | – | – |
| weak interaction | 17.9 µM | CCOC(=O)C1=C(COCCN)NC(C)=C(C(=O)OC)C1c1ccccc1Cl (stereo not drawn) [amlodipine] | – | – |
| ABCB4 inhibitors | – | C=C[C@@H]1C[C@]1(NC(=O)[C@@H]1C[C@@H](Oc2ncc(OC)c3ccc(Cl)cc23)CN1C(=O)[C@@H](NC(=O)OC(C)(C)C)C(C)(C)C)C(=O)NS(=O)(=O)C1CC1 [asunaprevir] | – | – |
| – | – | CCc1oc2ccccc2c1C(=O)c1cc(Br)c(O)c(Br)c1 [benzbromarone] | Most DILI concern | IC50 (human ABCB4 [1]): 19.9 µM; IC50 (ABCB4 [3]; human primary hepatocyte assay): 0.4 µM |
| – | > 80 µM | NC(=O)N1c2ccccc2C=Cc2ccccc21 [carbamazepine] | Most DILI concern | IC50 (ABCB4 [3]; human primary hepatocyte assay): > 300 µM; ABCB1 Interactor (ABCB1): Conflicting information [50] |
| – | 0.7 µM | COc1ccccc1OCCNCC(O)COc1cccc2[nH]c3ccccc3c12 (stereo not drawn) [carvedilol] | Less DILI concern | – |
| – | > 80 µM | CC[C@H]1OC(=O)[C@H](C)[C@@H](O[C@H]2C[C@@](C)(OC)[C@@H](O)[C@H](C)O2)[C@H](C)[C@@H](O[C@@H]2O[C@H](C)C[C@H](N(C)C)[C@H]2O)[C@](C)(OC)C[C@@H](C)C(=O)[C@H](C)[C@@H](O)[C@]1(C)O [clarithromycin] | Most DILI concern | – |
| ABCB4 inhibitors | > 10 µM | CC(C)CN(C[C@@H](O)[C@H](Cc1ccccc1)NC(=O)O[C@H]1CO[C@H]2OCC[C@H]21)S(=O)(=O)c1ccc(N)cc1 [darunavir] | – | inhibition at 10 µM (human ABCB4 [1]; read-out: % inhibition of ABCB4-mediated digoxin transport at 10 µM, 10 µM test drug, digoxin 1 µM): 60% |
| – | – | C[C@H]1O[C@@H](O[C@H]2[C@@H](O)C[C@H](O[C@H]3[C@@H](O)C[C@H](O[C@H]4CC[C@@]5(C)[C@H](CC[C@@H]6[C@@H]5C[C@@H](O)[C@]5(C)[C@@H](C7=CC(=O)OC7)CC[C@]65O)C4)O[C@@H]3C)O[C@@H]2C)C[C@H](O)[C@@H]1O [digoxin] | – | ABCB4 substrate status, in words (human ABCB4 [4]): shared substrate for ABCB1 and ABCB4; efflux ratio at 1 µM (canine Abcb1 [5]): 4.74 ± 0.15 |
| – | 48.6 µM | COc1ccc([C@@H]2Sc3ccccc3N(CCN(C)C)C(=O)[C@@H]2OC(C)=O)cc1 [diltiazem] | – | – |
| – | > 5 µM | C#Cc1cccc(Nc2ncnc3cc(OCCOC)c(OCCOC)cc23)c1 [erlotinib] | Most DILI concern | – |
| no interaction | > 30 µM | CCOC(=O)C1=C(C)NC(C)=C(C(=O)OC)C1c1cccc(Cl)c1Cl (stereo not drawn) [felodipine] | – | – |
| no interaction | > 20 µM | CC(C)OC(=O)C(C)(C)Oc1ccc(C(=O)c2ccc(Cl)cc2)cc1 [fenofibrate] | – | – |
| – | – | OC(Cn1cncn1)(Cn1cncn1)c1ccc(F)cc1F [fluconazole] | Most DILI concern | IC50 (human ABCB4 [1]): > 3 µM; IC50 (ABCB4 [3]; human primary hepatocyte assay): > 300 µM |
| did not inhibit ABCB4 | > 5 µM | CC[C@H](Nc1ncnc2[nH]cnc12)c1nc2cccc(F)c2c(=O)n1-c1ccccc1 [idelalisib] | – | – |
| – | 0.17 µM | CCC(C)n1ncn(-c2ccc(N3CCN(c4ccc(OCC5COC(Cn6cncn6)(c6ccc(Cl)cc6Cl)O5)cc4)CC3)cc2)c1=O (stereo not drawn) [itraconazole] | Most DILI concern | In Vitro Literature Data, % inhibition at 1 µM (ABCB4 [6]; 1 µM): 50%; IC50 (ABCB4 [6]): 22.5 µM; In Vitro Literature Data, % inhibition at 10 µM (ABCB4 [7]; 10 µM, LLC-PK1-ABCB4 cells): 30%; IC50 (ABCB4 [3]; [10]): 2.1 µM; Effect on ABCB4-mediated transport of gefitinib (human ABCB4 [4]; itraconazole 2 µM, gefitinib 0.5 µM): inhibited |
| – | – | CC(=O)N1CCN(c2ccc(OCC3COC(Cn4ccnc4)(c4ccc(Cl)cc4Cl)O3)cc2)CC1 (stereo not drawn) [ketoconazole] | Most DILI concern | IC50 (human ABCB4 [1]): 0.56 µM; IC50 (ABCB4 [6]): 4.6 µM |
| ABCB4 inhibitors | 0.6 µM | Cc1cccc(C)c1OCC(=O)N[C@@H](Cc1ccccc1)[C@@H](O)C[C@H](Cc1ccccc1)NC(=O)[C@H](C(C)C)N1CCCNC1=O [lopinavir] | – | – |
| no effect | > 20 µM | Nc1cc(N2CCCCC2)nc(N)[n+]1[O-] [minoxidil] | – | IC50 (ABCB4 [3]; human primary hepatocyte assay): > 300 µM |
| no interaction | > 10 µM | COc1ccnc(C[S+]([O-])c2nc3ccc(OC(F)F)cc3[nH]2)c1OC (stereo not drawn) [pantoprazole] | Less DILI concern | – |
| – | 16.1 µM | COc1cc2nc(N3CCN(C(=O)c4ccco4)CC3)nc(N)c2cc1OC [prazosin] | – | ABCB4 substrate status, in words (human ABCB4 [4]): minor ABCB4-mediated directional transport |
| – | 1.09 µM | C=C[C@H]1C[N@@]2CC[C@H]1C[C@@H]2[C@@H](O)c1ccnc2ccc(OC)cc12 [quinidine] | – | efflux ratio at 1 µM (human ABCB4 [4]; human, pH 7.4, 1 µM, ABCB4 cells, read-out: Efflux ratio (ER)): < 2 |
| – | – | CC(C)c1nc(CN(C)C(=O)N[C@H](C(=O)N[C@@H](Cc2ccccc2)C[C@H](O)[C@H](Cc2ccccc2)NC(=O)OCc2cncs2)C(C)C)cs1 [ritonavir] | Most DILI concern | IC50 (ABCB4 [3]; human primary hepatocyte assay): […]; IC50 (ABCB4 [3]; [10]): […] |
| – | 1.4 µM | CC(C)(C)NC(=O)[C@@H]1C[C@@H]2CCCC[C@@H]2CN1C[C@@H](O)[C@H](Cc1ccccc1)NC(=O)[C@H](CC(N)=O)NC(=O)c1ccc2ccccc2n1 [saquinavir] | Less DILI concern | – |
| – | 4.42 µM | CNC(=O)c1cc(Oc2ccc(NC(=O)Nc3ccc(Cl)c(C(F)(F)F)c3)cc2)ccn1 [sorafenib] | Most DILI concern | – |
| – | – | COc1ccc(CCN(C)CCCC(C#N)(c2ccc(OC)c(OC)c2)C(C)C)cc1OC (stereo not drawn) [verapamil] | – | In Vitro Literature Data, inhibitor (IC50 value was not determined) (ABCB4 [7]): inhibitor |
| – | – | maraviroc | – | Affinity for endogenous canine Abcb1 in MDCKII cell lines, in words (canine Abcb1 [8]): strong affinity |

| Molecule | Effect on ABCB4-mediated digoxin transport, in words (human ABCB4 [1]; digoxin 1 µM probe) | IC50 (human ABCB4 [1]; [9]) | DILI Concern [2] | also measured |
| --- | --- | --- | --- | --- |
| COc1cc2c(cc1OC)CN(CCc1ccc(NC(=O)c3cccc4c(=O)c5cccc(OC)c5[nH]c34)cc1)CC2 [elacridar] | strong concentration-dependent inhibitory effect | 0.15 µM | – | – |
| CN(Cc1cnc2nc(N)nc(N)c2n1)c1ccc(C(=O)N[C@@H](CCC(=O)O)C(=O)O)cc1 [methotrexate] | did not detect interaction; also recorded: did not show inhibition | > 10 µM | Most DILI concern | IC50 (ABCB4 [3]; human primary hepatocyte assay): 3.1 µM |
| COCC(=O)O[C@]1(CCN(C)CCCc2nc3ccccc3[nH]2)CCc2cc(F)ccc2[C@@H]1C(C)C [mibefradil] | strong concentration-dependent inhibitory effect | 0.4 µM | – | – |
| C/C=C/C[C@@H](C)C(=O)[C@H]1C(=O)N[C@@H](C(C)C)C(=O)N(C)CC(=O)N(C)[C@@H](CC(C)C)C(=O)N[C@@H](C(C)C)C(=O)N(C)[C@@H](CC(C)C)C(=O)N[C@@H](C)C(=O)N[C@H](C)C(=O)N(C)[C@@H](CC(C)C)C(=O)N(C)[C@@H](CC(C)C)C(=O)N(C)[C@@H](C(C)C)C(=O)N1C [valspodar] | potent ABCB4 inhibitor | – | – | IC50 (human ABCB4 [1]): 0.15 µM; In Vitro Literature Data, inhibitor (IC50 value was not determined) (ABCB4 [7]): Inhibitor ^d [16] |
| O[C@@H](COc1cccc2ncccc12)CN1CCN([C@@H]2c3ccccc3[C@@H]3[C@H](c4ccccc42)C3(F)F)CC1 [zosuquidar] | strong concentration-dependent inhibitory effect | 0.07 µM | – | – |
| ivermectin | ABCB4 inhibitor | 0.53 µM | Less DILI concern | In Vitro Literature Data, substrate (ABCB4 [7]; LLC-PK1-ABCB4 cells): Substrate [16] |

From publication PMC10003010, “A Unique In Vitro Assay to Investigate ABCB4 Transport Function” (International Journal of Molecular Sciences, 2023)
